Literature values as cited in patent publication US5525603A, “Compositions, methods and kits for potentiating antitumor effect and for treating tumor” (priority 1991, dated 1996).

Experiments:
[1] = test system: oral cavity, gastrointestinal tissue; settings: prolonged presence in the living body, continuous intravenous infusion of 5-FU alone
[2] = in combination with 5-FU or 5-FU derivative

SMILES | disorder (inflammation) in the oral cavity, gastrointestinal tissue and the like [1] | effect on antitumor effect of 5-FU or 5-FU derivative [2] | inhibition of inflammation caused by 5-FU or 5-FU derivative [2]
O=c1[nH]cc(F)c(=O)[nH]1 [5-FU, 5-fluorouracil] | likely to cause a disorder (inflammation) in the oral cavity, gastrointestinal tissue and the like | – | –
O=C(O)c1nc(=O)[nH]c(=O)[nH]1 [oxonic acid] | – | reduces the antitumor effect of 5-FU or 5-FU derivative | can inhibit the occurrence of inflammation caused by 5-FU or 5-FU derivative
